According to patent publication US9296719B2, “Compositions and methods for the treatment of norovirus infection” (Indiana University Research and Technology Corporation, priority 2011, dated 2016):
“Also recorded” adds a separate entry of the source. Where two headings read alike, the source gives them in different places.

How the values were obtained:
GII.4 NV polymerase = assay: 5BR reporter assay, GII.4 polymerase; assay type: cell-based, Human Norovirus; conditions: for effect on GII.4 polymerase 5BR assay readout (screen): re-screened at 10 and 20 μM final concentrations, FIG. 6A
Experimental: (§1) The 5BR reporter assay to measure the activity of the Norovirus polymerase and other viral polymerases was performed as per Ranjith-Kumar et al. (32). The assay could also be performed with other viral proteins, such as VPg or VP1. Briefly, plasmids expressing RdRp and VPg were co-transfected along with plasmids to express RIG-I or MDA5, as well as the firefly and Renilla luciferase reporters. HEK293T or Huh 7 cells were transfected using Lipofectamine 2000 (Invitrogen, Carlsbad, Calif.) according to the manufacturer's instructions. 24 h prior to transfection, 0.75×10^5 cells were seeded into each well of Costar 96-well plates in DMEM containing 10% FBS. Cells were then typically transfected at 75% confluency with plasmid amounts detailed in the figure legends and complexed with Lipofectamine 2000 as per the manufacturer's instructions (Invitrogen, USA). Vector plasmid (pUNO-MCS) was used to maintain a constant total plasmid DNA per well. To examine the VPg effect on NV RdRp-RIG-I signaling, 293T cells were co-transfected with plasmids expressing RdRp and VPg. At 36 h after transfection, luciferase activity was measured using Dual-Glo Luciferase Assay System (Promega, Madison, Wis.) in Synergy 2 microplate reader (BioTek, Winooski, Vt.).
Where inhibitors were added to the cells for the 5BR assay, they were added 2 h after transfection of the plasmids.
We have previously developed an easily manipulative, cell-based assay to assess RNA synthesis by viral polymerases. The 5BR assay was validated for the 1b HCV polymerase (NS5B) and has since been established for several other viruses that cannot infect cultured human cells (32 and data not shown). The assay works by having the viral polymerase synthesize RNAs, which then act as agonists to activate RIG-I and/or MDA5. Receptor activation induces Firefly luciferase reporter expression which is driven by the interferon beta promoter (FIG. 2A). A Renilla luciferase is expressed in the same cells to report on the transfection efficiency and possible cytopathic effects. The polymerase from the GII.4 strain of Norwalk virus is the prototype in our assay.
The 5BR assay format has been validated for studies of nonnucleoside and nucleoside inhibitors (NNI, NI, respectively) of the 1b and 2a HCV polymerase and how resistant mutations can prevent inhibition (32). Using this format, we performed a proof-of-concept screen for inhibitor of the GII.4 polymerase. […] The hits were re-screened at 10 and 20 μM final concentrations (FIG. 6A). […] This is consistent with the results of Chang et al., (18) although Ribavirin is known to have pleiotropic effects on cellular as well as viral processes (66).

[1] = system: recombinant GII.4 polymerase (NV RdRp); assay: Differential scanning fluorimetry (DSF) binding to recombinant NV polymerase; set-up: species or system Human Norovirus
Text: Differential Scanning Fluorimetry (DSF)
This method is used to examine the binding of proteins to drugs (31). The principle for the assay is that the thermal denaturation profile of the protein could be changed when it is complexed to the drug. To perform the assay, thermal melting curves of NV RdRp in the presence of inhibitors were obtained in 96-well plates using Stratagene Mx3005P Q-PCR system (Agilent Tachnologies, USA) and the fluorescent dye SYPRO Orange (Invitrogen, Carlsbad, Calif.). To evaluate the binding affinities of inhibitors, different concentrations of various drugs like VX-222, Filibuvir and Ribavirin were mixed with 20 μM purified NV RdRp and 5× concentration of SYPRO Orange. A heating rate of 1.0° C. per min was used from 25 to 90° C., and fluorescence intensity was read at excitation and emission wavelengths of 470 and 550 nm, respectively. Each sample was tested in triplicate, and the results were duplicated in at least two independent assays.

MNV polymerase = molecular target: T1, MNV polymerase (Norovirus, UniProt Q80J95); assay: 5BR reporter assay, MNV polymerase; assay type: cell-based, Mouse norovirus; conditions: 5BR assay; read-out: EC50, inhibition of MNV polymerase
T1 construct: NS7, the RNA-dependent RNA polymerase (RdRp), and NS5 (VPg), the protein primer; expressed in transfected cells; host or cells: HEK293T or Huh 7
Experimental: as §1
(§2) Where inhibitors were added to the cells for the 5BR assay, they were added 2 h after transfection of the plasmids. […]

RIG-I signaling = RIG-I signaling in the absence of the NV polymerase; assay type: cell-based, human; conditions: absence of the NV polymerase (data not shown)
Experimental: as §1, with “Vt.). […]” for “Vt.).”

[2] = molecular target: GII.4 polymerase-VPg complex; assay: 5BR reporter assay, GII.4 polymerase-VPg complex; assay type: cell-based, Human Norovirus
Experimental: as §1, §2

Row | Compound | effect on GII.4 polymerase 5BR assay readout (screen) (GII.4 NV polymerase) | concentration at which the thermal denaturation profile starts to shift ([1]; nucleoside form) [µM] | effect in the DSF assay ([1]; recombinant GII.4 polymerase) | EC50 (GII.4 NV polymerase; 5BR assay, polymerase alone (no VPg), read-out: EC50, inhibition of GII4 polymerase) [nM] | EC50 (GII.4 NV polymerase; HEK293T cells, 5BR assay, read-out: effective concentration for inhibition) [nM] | inhibition of GII.4 NV polymerase activity in Huh7 cells (GII.4 NV polymerase; Huh7 cells, 5BR assay, GII.4 VP1 co-expressed, FIG. 6C) | EC50 (MNV polymerase) [nM] | shift of thermal denaturation profile (apparent Tm) of GII.4 polymerase ([1]; absence of VPg, apparent Tm of polymerase alone ~43.5° C.) | effect on RIG-I signaling (RIG-I signaling) | EC50 ([2]; 5BR assay, VPg co-expressed, read-out: EC50 with GII.4 polymerase-VPg complex) [nM] | EC50 ([2]; library screen, read-out: EC50, inhibitor of human norovirus polymerase-VPg complex) [nM]
1 | NC(=O)c1ncn([C@@H]2O[C@H](CO)[C@@H](O)[C@H]2O)n1 [Ribavirin] | modest inhibitory effect | 1 |  |  |  |  |  |  |  |  | 
2 | CCc1cc(CC[C@]2(C3CCCC3)CC(O)=C(Cc3nc4nc(C)cc(C)n4n3)C(=O)O2)cc(CC)n1 [Filibuvir] | no effect; also recorded: did not affect |  | no effect |  |  |  |  |  |  |  | 
3 | VX-222 |  |  |  | ~15000 | ~100 | concentration-dependent inhibition | ~15000 | more than 4.5 °C | did not affect | 900 | < 1000
